The values that follow come from patent US20130304029A1, “LOADING AND RELEASE OF WATER-INSOLUBLE DRUGS” (Boston Scientific Scimed, Inc., priority 1997, published 2013).

Data set [1] in a line: Saturation concentration of paclitaxel in ethanol. It is filed as physicochemical. As for the experimental part:
Nevertheless, the 30 mg/ml paclitaxel concentration is chosen for release studies as it produces the maximum paclitaxel loading (21-23%), while still being sufficiently below the saturation concentration for paclitaxel in ethanol (39 mg/ml).

Data set [2] is described as follows: Paclitaxel content of polyurethane coated stents by extraction in dichloromethane. Type of data set: physicochemical. To be noted: 30 mg/ml paclitaxel concentration. How it is done:
Slotted tube stainless steel stents are coated with polyurethane by spraying a 1 wt % solution of CHRONOFLEX® polyurethane (made by CT Biomaterials) in tetrahydrofuran directly onto the stent surface. The coated stents are dried in a vacuum oven for three hours at 70° C.
Each polyurethane coated stent is placed in a vial, which is filled to maximum volume (1.5 ml) with a solution of paclitaxel in ethanol, and sealed. The stent is stored in the vial for three days at room temperature. The stent is then removed from the vial and dried for one hour at 65° C.
The above procedure is conducted using solutions of varying concentrations. Each stent is analyzed for paclitaxel content by extraction in dichloromethane solvent. Samples 1 and 2 were obtained using a paclitaxel concentration of 10 mg/ml, samples 3 and 4 using a 20 mg/ml solution and sample 5 and 6 using a 30 mg/ml solution.
Seven polyurethane coated stents are loaded using a 30 mg/ml paclitaxel solution, removed and dried as set forth above. Paclitaxel from four of the stents is extracted in dichloromethane solvent.

Data set [3] is described as follows: In-vivo delivery of paclitaxel from polyacrylic acid-based coated balloon catheter. The arrangement: species or system pig. To be noted: for Amount of paclitaxel released in bloodstream: loaded minus extracted; for Amount of paclitaxel extracted from balloon after delivery: polyacrylic acid-based coated balloon catheter. As for the experimental part: A 9.8 mg/ml solution of radio-labeled paclitaxel in chloroform is prepared. A total of 50 μl of the solution is applied via pipet to a balloon catheter having a polyacrylic acid-based coating. The paclitaxel from the coated balloon catheter is then released in-vivo to porcine arteries. After release for a predetermined amount of time, the paclitaxel remaining in the coating is extracted using two sequential ethanol washes. The amount of paclitaxel released in the pig bloodstream, as calculated from the amount of paclitaxel loaded into the coating minus that extracted from the coating after delivery, is shown in Table II.

As to `CC(=O)O[C@H]1C(=O)[C@@]2(C)[C@H]([C@H](OC(=O)c3ccccc3)[C@]3(O)C[C@H](OC(=O)[C@H](O)[C@@H](NC(=O)c4ccccc4)c4ccccc4)C(C)=C1C3(C)C)[C@]1(OC(C)=O)CO[C@@H]1C[C@@H]2O` [paclitaxel], in data set [1], the “saturation concentration for paclitaxel in ethanol” value is 39 mg/mL. In addition, the maximum paclitaxel loading in data set [2] was 21-23%. Moreover, in data set [3] (1 minute in bloodstream), the “% of paclitaxel released in bloodstream” value stood at 63%, the “Amount of paclitaxel released in bloodstream” value amounted to 307 µg and the “Amount of paclitaxel extracted from balloon after delivery” value was 182 ± 1 µg. Also, in data set [3] (5 minutes in bloodstream), the “% of paclitaxel released in bloodstream” value came out at 68%, the “Amount of paclitaxel released in bloodstream” value turned out to be 330 µg and the “Amount of paclitaxel extracted from balloon after delivery” value turned out to be 160 ± 30 µg.
